Data from the supplement of paper PMC10627819.

Columns and labels:
Test in all cases: fitness (endpoint OD595 vs no drug) (fraction); higher = more growth
S. pneumoniae D39V = system: S. pneumoniae D39V
How it was run: (§1)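 At 37 °C, bacteria in TSB, LB Lennox or CY were grown in 384-well plates from a starting OD595 of 0.01. OD595 was measured every 30 min for 14 h, with the first reading used as background. Fitness is the optical density at the switch to stationary phase as a fraction of the robust mean of no-drug control wells, capped at 1.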

S. aureus DSM 20231 = system: S. aureus DSM 20231
How it was run: as §1

S. aureus Newman = system: S. aureus Newman
How it was run: as §1
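Further: OD595 on entry to stationary phase over no-drug wells; at most 1.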

CO[C@@]12[C@H](COC(N)=O)C3=C(C(=O)C(C)=C(N)C3=O)N1C[C@@H]1N[C@@H]12 [Mitomycin C] + CO[C@H]1/C=C/O[C@@]2(C)Oc3c(C)c(O)c4c(O)c(c(/C=N/N5CCN(C)CC5)c(O)c4c3C2=O)NC(=O)/C(C)=C\C=C\[C@H](C)[C@H](O)[C@@H](C)[C@@H](O)[C@@H](C)[C@H](OC(C)=O)[C@@H]1C [Rifampicin]
fitness, S. pneumoniae D39V
Conditions	first compound 0.001075 µg/mL	first compound 0.002 µg/mL	first compound 0.00215 µg/mL	first compound 0.004 µg/mL	first compound 0.0043 µg/mL	first compound 0.008 µg/mL
partner 0.05 µg/mL	0.779	0.647	0.664	0.558	0.517	–
partner 0.1 µg/mL	0.458	0.289	0.307	0.308	0.288	0.288
partner 0.2 µg/mL	0.18	–	0.169	–	0.129	–

fitness, S. pneumoniae D39V, one replicate
Conditions	first compound 0.002 µg/mL	first compound 0.004 µg/mL	first compound 0.008 µg/mL
partner 0.025 µg/mL	0.804	0.698	0.492
partner 0.2 µg/mL	0	0	0

CC(=O)NC[C@H]1CN(c2ccc(N3CCOCC3)c(F)c2)C(=O)O1 [Linezolid] + CO[C@@]12[C@H](COC(N)=O)C3=C(C(=O)C(C)=C(N)C3=O)N1C[C@@H]1N[C@@H]12 [Mitomycin C]
Conditions	fitness
S. aureus DSM 20231, first compound 0.125 µg/mL, partner 0.0156 µg/mL	0.681
S. aureus DSM 20231, first compound 0.125 µg/mL, partner 0.0312 µg/mL	0.68
S. aureus DSM 20231, first compound 0.125 µg/mL, partner 0.0625 µg/mL	0.531
S. aureus DSM 20231, first compound 0.25 µg/mL, partner 0.0156 µg/mL	0.466
S. aureus DSM 20231, first compound 0.25 µg/mL, partner 0.0312 µg/mL	0.458
S. aureus DSM 20231, first compound 0.25 µg/mL, partner 0.0625 µg/mL	0.296
S. aureus DSM 20231, first compound 0.5 µg/mL, partner 0.0156 µg/mL	0.141
S. aureus DSM 20231, first compound 0.5 µg/mL, partner 0.0312 µg/mL	0.105
S. aureus DSM 20231, first compound 0.5 µg/mL, partner 0.0625 µg/mL	0.0726
S. pneumoniae D39V, first compound 0.105 µg/mL, partner 0.002 µg/mL	0.745
S. pneumoniae D39V, first compound 0.105 µg/mL, partner 0.004 µg/mL	0.669
S. pneumoniae D39V, first compound 0.105 µg/mL, partner 0.008 µg/mL	0.524
S. pneumoniae D39V, first compound 0.2 µg/mL, partner 0.001075 µg/mL	0.745
S. pneumoniae D39V, first compound 0.2 µg/mL, partner 0.00215 µg/mL	0.733
S. pneumoniae D39V, first compound 0.2 µg/mL, partner 0.0043 µg/mL	0.634
S. pneumoniae D39V, first compound 0.21 µg/mL, partner 0.002 µg/mL	0.563
S. pneumoniae D39V, first compound 0.21 µg/mL, partner 0.004 µg/mL	0.563
S. pneumoniae D39V, first compound 0.21 µg/mL, partner 0.008 µg/mL	0.397
S. pneumoniae D39V, first compound 0.4 µg/mL, partner 0.001075 µg/mL	0.618
S. pneumoniae D39V, first compound 0.4 µg/mL, partner 0.00215 µg/mL	0.626
S. pneumoniae D39V, first compound 0.4 µg/mL, partner 0.0043 µg/mL	0.366
S. pneumoniae D39V, first compound 0.42 µg/mL, partner 0.002 µg/mL	0.414
S. pneumoniae D39V, first compound 0.42 µg/mL, partner 0.004 µg/mL	0.389
S. pneumoniae D39V, first compound 0.42 µg/mL, partner 0.008 µg/mL	0.23
S. pneumoniae D39V, first compound 0.8 µg/mL, partner 0.001075 µg/mL	0.316
S. pneumoniae D39V, first compound 0.8 µg/mL, partner 0.00215 µg/mL	0.323
S. pneumoniae D39V, first compound 0.8 µg/mL, partner 0.0043 µg/mL	0.258

S. aureus DSM 20231, first compound 1 µg/mL, one replicate
Conditions	fitness
partner 0.0156 µg/mL	0.0176
partner 0.0312 µg/mL	0.0107
partner 0.0625 µg/mL	0.0169

CO[C@@]12[C@H](COC(N)=O)C3=C(C(=O)C(C)=C(N)C3=O)N1C[C@@H]1N[C@@H]12 [Mitomycin C] + CN[C@@H]1[C@H](O[C@H]2[C@H](O[C@H]3[C@H](O)[C@@H](O)[C@H](N=C(N)N)[C@@H](O)[C@@H]3N=C(N)N)O[C@@H](C)[C@]2(O)C=O)O[C@@H](CO)[C@H](O)[C@H]1O [Streptomycin]
fitness
Conditions	partner 1 µg/mL	partner 2 µg/mL	partner 4 µg/mL	partner 8 µg/mL
S. aureus Newman, first compound 0.0156 µg/mL	0.727	0.683	–	–
S. aureus Newman, first compound 0.0312 µg/mL	0.666	0.677	0.523	–
S. aureus Newman, first compound 0.0625 µg/mL	0.473	0.402	0.272	–
S. pneumoniae D39V, first compound 0.001075 µg/mL	–	0.883	0.913	0.939
S. pneumoniae D39V, first compound 0.002 µg/mL	–	–	0.857	0.802
S. pneumoniae D39V, first compound 0.00215 µg/mL	–	0.838	0.827	0.834
S. pneumoniae D39V, first compound 0.004 µg/mL	–	–	0.712	0.668
S. pneumoniae D39V, first compound 0.0043 µg/mL	–	0.701	0.741	0.717
S. pneumoniae D39V, first compound 0.008 µg/mL	–	–	0.54	0.56

fitness, S. pneumoniae D39V, one replicate
Conditions	first compound 0.002 µg/mL	first compound 0.004 µg/mL	first compound 0.008 µg/mL
partner 2 µg/mL	0.857	0.749	0.666
partner 16 µg/mL	0.711	0.544	0.304

CO[C@@]12[C@H](COC(N)=O)C3=C(C(=O)C(C)=C(N)C3=O)N1C[C@@H]1N[C@@H]12 [Mitomycin C] + CC1(C)S[C@@H]2[C@H](NC(=O)Cc3ccccc3)C(=O)N2[C@H]1C(=O)O [Penicillin G]
fitness, S. aureus Newman
Conditions	first compound 0.0156 µg/mL	first compound 0.0312 µg/mL	first compound 0.0625 µg/mL
partner 0.0195 µg/mL	0.671	0.562	0.441
partner 0.039 µg/mL	0.646	0.556	0.389
partner 0.078 µg/mL	0.636	0.564	0.412

CO[C@@]12[C@H](COC(N)=O)C3=C(C(=O)C(C)=C(N)C3=O)N1C[C@@H]1N[C@@H]12 [Mitomycin C] + COc1cc(Cc2cnc(N)nc2N)cc(OC)c1OC [Trimethoprim]
fitness, S. aureus DSM 20231
Conditions	partner 0.125 µg/mL	partner 0.25 µg/mL	partner 0.5 µg/mL	partner 1 µg/mL
first compound 0.0156 µg/mL	0.6	0.506	0.0394	0.0198
first compound 0.0312 µg/mL	0.604	0.485	0.0541	0.0233
first compound 0.0625 µg/mL	0.491	0.279	0.0513	0.0116

CO[C@@]12[C@H](COC(N)=O)C3=C(C(=O)C(C)=C(N)C3=O)N1C[C@@H]1N[C@@H]12 [Mitomycin C] + CN(C)c1cc(NC(=O)CNC(C)(C)C)c(O)c2c1C[C@H]1C[C@H]3[C@H](N(C)C)C(O)=C(C(N)=O)C(=O)[C@@]3(O)C(O)=C1C2=O [Tigecycline]
fitness
Conditions	first compound 0.001075 µg/mL	first compound 0.002 µg/mL	first compound 0.00215 µg/mL	first compound 0.004 µg/mL	first compound 0.0043 µg/mL	first compound 0.008 µg/mL	first compound 0.0156 µg/mL	first compound 0.0312 µg/mL	first compound 0.0625 µg/mL
S. aureus Newman, partner 0.039 µg/mL	–	–	–	–	–	–	0.7	0.661	0.551
S. aureus Newman, partner 0.078 µg/mL	–	–	–	–	–	–	0.725	0.655	0.558
S. aureus Newman, partner 0.156 µg/mL	–	–	–	–	–	–	0.746	0.679	0.505
S. pneumoniae D39V, partner 0.65 µg/mL	0.89	0.878	0.848	0.804	0.819	0.688	–	–	–
S. pneumoniae D39V, partner 1.3 µg/mL	0.877	0.888	0.859	0.764	0.822	0.625	–	–	–
S. pneumoniae D39V, partner 2.6 µg/mL	0.893	0.816	0.844	0.806	0.783	0.627	–	–	–
